In patent publication US20250325562A1, “Intravenous Ganaxolone Formulations and Methods of Use in Treating Status Epilepticus and Other Seizure Disorders” (MARINUS PHARMACEUTICALS, INC., priority 2015, published 2025):

Tested on: pilocarpine induced status epilepticus (SE)
Assay: Pilocarpine-induced status epilepticus in rats, cortical EEG power
Type: in vivo, Male Sprague-Dawley rats
Design: key to Treatment effect on EEG power vs vehicle, significance: * P < 0.05; ** P < 0.01; *** P < 0.001; **** P < 0.0001; ns = not significant
Conditions: 12 mg/kg IV
Method: This study was designed to determine the ability of a CAPTISOL-ganaxolone (GNX) formulation administered intravenously (IV) at 12 and 15 mg/kg to inhibit pilocarpine induced status epilepticus (SE). Allopregnanolone (Allo) (15 mg/kg; IV) was also evaluated for comparison. In this study, test drugs were administered either 15 or 60 minutes after onset of SE and compared to vehicle (30% Captisol).
Cortical EEG activity was recorded in rats before and after administration of pilocarpine to induce SE. Animals were pre-treated with LiCl to enhance and improve reliability of seizure induction and scopolamine to reduce peripheral cholinergic side effects of pilocarpine. EEG activity was recorded for 5 h after SE onset, and anticonvulsant activity was assessed by determining changes in EEG power over frequency ranges from 0.3 to 96 Hz.
Male Sprague-Dawley rats were used for the studies. Rats were surgically implanted with EEG electrodes and jugular vein catheters. The mean weight at the time of recording was 321+3 g (269-351 g).
EEG electrodes were surgically implanted in anesthetized rats. Animals were also treated with an anti-inflammatory anaelgesic (RIMADYL, (carprofen)) prior to surgery and a subcutaneous local anesthetic. Stainless steel screw electrodes chronically were implanted in the skull (0-80×¼″, Plastics-One, Roanoke, VA) such that the ends of the screws were flush with the inner skull surface. One electrode was located 3.0 mm anterior to bregma and 2 mm to the left of midline, and the second 4.0 mm posterior to bregma and 2.5 mm to the right of midline. The skull surface around the electrodes was sealed with super glue and dental acrylic, and the EEG electrode lead wires were inserted into a plastic pedestal mounted on the skull using dental acrylic. Wound edges were treated with triple antibiotic cream (bacitracin zinc, neomycin sulfate, polymyxin B sulfate; Walgreens). Following surgery, animals were administered antibiotic (ampicillin, 50 mg/kg IP at 0.4 mL/kg) and also received a chewable dose (˜10 mg) of Rimadyl following surgery. The animals were allowed to recover from EEG surgery for 1 week.
Rats were implanted with jugular-vein catheters (JVC) one week following EEG surgery. Rats were administered an anti-inflammatory/analgesic and then anesthetized and placed in a supine position. An incision was made in the skin on the right ventrolateral aspect of the neck to expose the external jugular vein which was then dissected free of surrounding fascia. A ligature was tied around the vein anteriorly to occlude blood flow returning to the heart. A second ligature was loosely tied around the vein posteriorly to create tension on the vessel during venotomy and catheter insertion. After incising the vein, a PE catheter (3Fr) was inserted into the vein and advanced approximately 30 mm towards the heart, positioning the tip at the junction of the precava and right atrium. After confirming patency of the catheter by blood withdrawal, the posterior ligature was tied off, and the catheter flushed with a “heparin-lock” solution (5 units heparin/ml saline) and plugged with a sterilized stainless steel pin. The catheter was then exteriorized by tunneling through the subcutaneous tissue to exit posterior to the head between the shoulder blades. Lastly, after suturing the catheter to the skin, all wounds were closed using sutures or wound clips. Immediately following surgery, the animals were awakened to assess catheter patency. Animals also received a chewable dose (˜10 mg) of Rimadyl following surgery to minimize pain and inflammation.
Animals were allowed a 1-week recovery time following JVC surgery. Jugular vein catheters were flushed daily with a 0.1 mL of heparin solution (5 units/mL) to maintain patency. On the day of surgery, the flushing solution contained ampicillin sulbactam (50 mg/kg). […]

In the case of `CC(=O)[C@H]1CC[C@H]2[C@@H]3CC[C@H]4C[C@](C)(O)CC[C@]4(C)[C@H]3CC[C@]12C` [Ganaxolone, 3α-hydroxy, 3β-methyl-5α-pregnan-20-one], the “Treatment effect on EEG power vs vehicle, significance” value (15 min post SE onset, 0-5 Hz, 0-15 min. post drug) is reported as “**** (**** P < 0.0001)”, the “Treatment effect on EEG power vs vehicle, significance” value (15 min post SE onset, 0-5 Hz, 1-2 hrs post drug) is reported as “**** (**** P < 0.0001)” and the “Treatment effect on EEG power vs vehicle, significance” value (15 min post SE onset, 0-5 Hz, 2-3 hrs post drug) is reported as “*** (*** P < 0.001)”. For the same compound, the “Treatment effect on EEG power vs vehicle, significance” value (15 min post SE onset, 0-5 Hz, 3-5 hrs post drug) was “** (** P < 0.01)”, the “Treatment effect on EEG power vs vehicle, significance” value (15 min post SE onset, 0-5 Hz, 15-30 min post drug) was “**** (**** P < 0.0001)” and the “Treatment effect on EEG power vs vehicle, significance” value (15 min post SE onset, 0-5 Hz, 30-60 min post drug) was “**** (**** P < 0.0001)”. For the same compound, the “Treatment effect on EEG power vs vehicle, significance” value (15 min post SE onset, 5-10 Hz, 0-15 min. post drug) was “**** (**** P < 0.0001)”, the “Treatment effect on EEG power vs vehicle, significance” value (15 min post SE onset, 5-10 Hz, 1-2 hrs post drug) was “** (** P < 0.01)” and the “Treatment effect on EEG power vs vehicle, significance” value (15 min post SE onset, 5-10 Hz, 2-3 hrs post drug) was “* (* P < 0.05)”. The “Treatment effect on EEG power vs vehicle, significance” value (15 min post SE onset, 5-10 Hz, 3-5 hrs post drug) was “ns”, the “Treatment effect on EEG power vs vehicle, significance” value (15 min post SE onset, 5-10 Hz, 15-30 min post drug) was “**** (**** P < 0.0001)” and the “Treatment effect on EEG power vs vehicle, significance” value (15 min post SE onset, 5-10 Hz, 30-60 min post drug) was “*** (*** P < 0.001)”. The “Treatment effect on EEG power vs vehicle, significance” value (15 min post SE onset, 10-30 Hz, 0-15 min. post drug) was “*** (*** P < 0.001)”, the “Treatment effect on EEG power vs vehicle, significance” value (15 min post SE onset, 10-30 Hz, 1-2 hrs post drug) was “* (* P < 0.05)” and the “Treatment effect on EEG power vs vehicle, significance” value (15 min post SE onset, 10-30 Hz, 2-3 hrs post drug) was “ns”. For the same compound, the “Treatment effect on EEG power vs vehicle, significance” value (15 min post SE onset, 10-30 Hz, 3-5 hrs post drug) was “ns”, the “Treatment effect on EEG power vs vehicle, significance” value (15 min post SE onset, 10-30 Hz, 15-30 min post drug) was “**** (**** P < 0.0001)” and the “Treatment effect on EEG power vs vehicle, significance” value (15 min post SE onset, 10-30 Hz, 30-60 min post drug) was “** (** P < 0.01)”. For the same compound, the “Treatment effect on EEG power vs vehicle, significance” value (15 min post SE onset, 30-50 Hz, 0-15 min. post drug) was “*** (*** P < 0.001)”, the “Treatment effect on EEG power vs vehicle, significance” value (15 min post SE onset, 30-50 Hz, 1-2 hrs post drug) was “* (* P < 0.05)” and the “Treatment effect on EEG power vs vehicle, significance” value (15 min post SE onset, 30-50 Hz, 2-3 hrs post drug) was “ns”. The “Treatment effect on EEG power vs vehicle, significance” value (15 min post SE onset, 30-50 Hz, 3-5 hrs post drug) was “ns”, the “Treatment effect on EEG power vs vehicle, significance” value (15 min post SE onset, 30-50 Hz, 15-30 min post drug) was “*** (*** P < 0.001)” and the “Treatment effect on EEG power vs vehicle, significance” value (15 min post SE onset, 30-50 Hz, 30-60 min post drug) was “** (** P < 0.01)”. The “Treatment effect on EEG power vs vehicle, significance” value (15 min post SE onset, 50-70 Hz, 0-15 min. post drug) was “** (** P < 0.01)”, the “Treatment effect on EEG power vs vehicle, significance” value (15 min post SE onset, 50-70 Hz, 1-2 hrs post drug) was “** (** P < 0.01)” and the “Treatment effect on EEG power vs vehicle, significance” value (15 min post SE onset, 50-70 Hz, 2-3 hrs post drug) was “ns”. The “Treatment effect on EEG power vs vehicle, significance” value (15 min post SE onset, 50-70 Hz, 3-5 hrs post drug) was “ns”, the “Treatment effect on EEG power vs vehicle, significance” value (15 min post SE onset, 50-70 Hz, 15-30 min post drug) was “** (** P < 0.01)” and the “Treatment effect on EEG power vs vehicle, significance” value (15 min post SE onset, 50-70 Hz, 30-60 min post drug) was “* (* P < 0.05)”. For the same compound, the “Treatment effect on EEG power vs vehicle, significance” value (15 min post SE onset, 70-96 Hz, 0-15 min. post drug) was “** (** P < 0.01)”, the “Treatment effect on EEG power vs vehicle, significance” value (15 min post SE onset, 70-96 Hz, 1-2 hrs post drug) was “** (** P < 0.01)” and the “Treatment effect on EEG power vs vehicle, significance” value (15 min post SE onset, 70-96 Hz, 2-3 hrs post drug) was “ns”. For the same compound, the “Treatment effect on EEG power vs vehicle, significance” value (15 min post SE onset, 70-96 Hz, 3-5 hrs post drug) was “ns”, the “Treatment effect on EEG power vs vehicle, significance” value (15 min post SE onset, 70-96 Hz, 15-30 min post drug) was “** (** P < 0.01)” and the “Treatment effect on EEG power vs vehicle, significance” value (15 min post SE onset, 70-96 Hz, 30-60 min post drug) was “* (* P < 0.05)”. The “Treatment effect on EEG power vs vehicle, significance” value (60 min post SE onset, 0-5 Hz, 0-15 min. post drug) was “*** (*** P < 0.001)”, the “Treatment effect on EEG power vs vehicle, significance” value (60 min post SE onset, 0-5 Hz, 1-2 hrs post drug) was “**** (**** P < 0.0001)” and the “Treatment effect on EEG power vs vehicle, significance” value (60 min post SE onset, 0-5 Hz, 2-3 hrs post drug) was “*** (*** P < 0.001)”. The “Treatment effect on EEG power vs vehicle, significance” value (60 min post SE onset, 0-5 Hz, 3-5 hrs post drug) was “** (** P < 0.01)”, the “Treatment effect on EEG power vs vehicle, significance” value (60 min post SE onset, 0-5 Hz, 15-30 min post drug) was “**** (**** P < 0.0001)” and the “Treatment effect on EEG power vs vehicle, significance” value (60 min post SE onset, 0-5 Hz, 30-60 min post drug) was “**** (**** P < 0.0001)”. The “Treatment effect on EEG power vs vehicle, significance” value (60 min post SE onset, 5-10 Hz, 0-15 min. post drug) was “**** (**** P < 0.0001)”, the “Treatment effect on EEG power vs vehicle, significance” value (60 min post SE onset, 5-10 Hz, 1-2 hrs post drug) was “*** (*** P < 0.001)” and the “Treatment effect on EEG power vs vehicle, significance” value (60 min post SE onset, 5-10 Hz, 2-3 hrs post drug) was “** (** P < 0.01)”. For the same compound, the “Treatment effect on EEG power vs vehicle, significance” value (60 min post SE onset, 5-10 Hz, 3-5 hrs post drug) was “ns”, the “Treatment effect on EEG power vs vehicle, significance” value (60 min post SE onset, 5-10 Hz, 15-30 min post drug) was “**** (**** P < 0.0001)” and the “Treatment effect on EEG power vs vehicle, significance” value (60 min post SE onset, 5-10 Hz, 30-60 min post drug) was “**** (**** P < 0.0001)”. The “Treatment effect on EEG power vs vehicle, significance” value (60 min post SE onset, 10-30 Hz, 0-15 min. post drug) was “* (* P < 0.05)”, the “Treatment effect on EEG power vs vehicle, significance” value (60 min post SE onset, 10-30 Hz, 1-2 hrs post drug) was “** (** P < 0.01)” and the “Treatment effect on EEG power vs vehicle, significance” value (60 min post SE onset, 10-30 Hz, 2-3 hrs post drug) was “* (* P < 0.05)”.
